Experimental data from patent US9631196B2, “Genetic manipulation and expression systems for Pucciniomycotina and Ustilaginomycotina subphyla” (priority 2011, dated 2017).
Where two headings read alike, the source gives them in different places.

How the values were obtained:
U maydis spheroplasts = type: cell-based, Ustilago maydis
Description: (§1) cyp1 (um11812) and ptf1 (um02713) genes were chosen for the comparison of gene-targeting frequency, which can be monitored by the loss of ustilagic acids (UA) production and the loss of Fuz^+ colonies, respectively. Gene deletion constructs, pKOcyp1 and pKOprf1, were made by one-step ligation of four fragments. pKOcyp1 is composed of the 2.0-kb HindIII-PacI fragment containing the Pgpd::hpt cassette, the 8.7 kb NcoI-KpnI fragment from pEX2tk, the 1405 bp NcoI-HindIII and the 1076 bp PacI-KpnI PCR product derived from the upstream and downstream regions of the cyp1 ORF. The oligo pairs Cyp1L-Nf/Cyp1L-Hr (SEQ ID NO:29/SEQ ID NO:30) and Cyp1R-Pf/Cyp1R-Kr (SEQ ID NO:31/SEQ ID NO:32) were used for the amplification of upstream and downstream region, respectively. pKOprf1 was made similarly except the PCR product of oligo pairs Prf1L-Nf/Prf1L-Hr (SEQ ID NO:33/SEQ ID NO:34) and Prf1R-Pf/Prf1R-Kr (SEQ ID NO:35/SEQ ID NO:36) were used as the upstream and downstream homology region, respectively. Correct strains were identified by colony PCR using Taq DNA polymerase based on the size of the expected constructs using oligos LB/Cyp1L-Nf (SEQ ID NO:37/SEQ ID NO:29) and LB/Prf1L-Nf (SEQ ID NO:37/SEQ ID NO:33) for cyp1Δ and prf1Δ respectively. The same construction and identification techniques were applied to generate other gene deletion mutants in this study.
PEG-mediated transformation of U maydis spheroplasts were done as described previously (Kämper, 2004). Briefly, the 4.5 kb cyp1 and prf1 gene deletion cassettes were amplified from pKOcyp1 and pKOprf1 using the Expand Long System (Roche Diagnosis, USA) and oligos Cyp1L-Nf/Cyp1R-Kr (SEQ ID NO:29/SEQ ID NO:32) and Prf1L-Nf/Prf1R-Kr (SEQ ID NO:33/SEQ ID NO:36), respectively. The PCR products were gel purified (Qiagen, Germany) and used for transformation. […]

U. maydis L8 and SG200 = type: cell-based, Ustilago maydis; conditions: for cyp1Δ (%) gene knockout frequency / prf1 Δ (%) gene knockout frequency: co-culture 2 days
Description: as §1
Similar results were obtained when knockout was performed via the ATMT transformation (Table 9).

[1] = NU7026 1 μM in top and bottom regeneration media, 3 days, out of 288 transformants

`O=c1cc(N2CCOCC2)oc2c1ccc1ccccc12` [NU7026, 2-(morpholin-4-yl)-benzo[h]chomen-4-one; 2-(4-morpholinyl)-4H-naphthol[1,2-b]pyran-4-one] was tested, and the “cyp1Δ gene knockout frequency” value (U maydis spheroplasts; [1]) was 16.67%, the “prf1Δ gene knockout frequency” value (U maydis spheroplasts; [1]) was 26.39% and the “increase of gene knockout frequency” value (U maydis spheroplasts; both cyp1 and prf1, NU7026 1 μM vs control) was “about 3 folds”. The “cyp1Δ (%) gene knockout frequency” value (U. maydis L8 and SG200; NU7026 0.1 μM) was 8.3%, the “prf1 Δ (%) gene knockout frequency” value (U. maydis L8 and SG200; NU7026 0.1 μM) was 11.4% and the “cyp1Δ (%) gene knockout frequency” value (U. maydis L8 and SG200; NU7026 1 μM) was 18.8%. The “prf1 Δ (%) gene knockout frequency” value (U. maydis L8 and SG200; NU7026 1 μM) was 25.1%, the “cyp1Δ (%) gene knockout frequency” value (U. maydis L8 and SG200; NU7026 5 μM) was 10.4% and the “prf1 Δ (%) gene knockout frequency” value (U. maydis L8 and SG200; NU7026 5 μM) was 12.7%. For the same compound, the “cyp1Δ (%) gene knockout frequency” value (U. maydis L8 and SG200; NU7026 10 μM) was 8.3%, the “prf1 Δ (%) gene knockout frequency” value (U. maydis L8 and SG200; NU7026 10 μM) was 8.7% and the “cyp1Δ (%) gene knockout frequency” value (U. maydis L8 and SG200; NU7026 50 μM) was 7.4%. The “prf1 Δ (%) gene knockout frequency” value (U. maydis L8 and SG200; NU7026 50 μM) was 8.5%, the “total number of transformants obtained in 5 transformation plates” value (shortened to “total number of transformants obtained”) (U. maydis L8 and SG200; cyp1Δ, NU7026 0.1 μM) was 601 and the “total number of transformants obtained” value (U. maydis L8 and SG200; cyp1Δ, NU7026 1 μM) was 496. For the same compound, the “total number of transformants obtained” value (U. maydis L8 and SG200; cyp1Δ, NU7026 5 μM) was 413, the “total number of transformants obtained” value (U. maydis L8 and SG200; cyp1Δ, NU7026 10 μM) was 96 and the “total number of transformants obtained” value (U. maydis L8 and SG200; cyp1Δ, NU7026 50 μM) was 68. For the same compound, the “total number of transformants obtained” value (U. maydis L8 and SG200; prf1Δ, NU7026 0.1 μM) was 642, the “total number of transformants obtained” value (U. maydis L8 and SG200; prf1Δ, NU7026 1 μM) was 554 and the “total number of transformants obtained” value (U. maydis L8 and SG200; prf1Δ, NU7026 5 μM) was 361. For the same compound, the “total number of transformants obtained” value (U. maydis L8 and SG200; prf1Δ, NU7026 10 μM) was 172 and the “total number of transformants obtained” value (U. maydis L8 and SG200; prf1Δ, NU7026 50 μM) was 59.
